Assays:
Type in all cases: in vitro ADME
[1] = test system: CYP3A4/5; experiment: CYP induction in primary human hepatocytes: CYP3A4/5; details: Testosterone 6β-hydroxylase, 48 hours, n=3
Method: Human hepatocytes isolated from three Caucasian males were transferred to 48‐well collagen‐coated plates at 0.14 × 10^6 cells/well in planting media for attachment. After attachment, planting media was replaced with sandwich media and the cells were incubated until clusters were established. […] The incubation solutions were aspirated and replaced with freshly prepared incubation solutions containing ataluren for an additional 24 hours. […] The incubation solutions were then aspirated and 150 µL of K‐H buffer containing CYP substrates were added. The hepatocytes were incubated for 30 minutes for CYP2C8 (10 µmol/L amodiaquine), 1 hour for CYP3A4 (125 µmol/L testosterone), and 4 hours for CYPs 1A2 (100 µmol/L phenacetin), 2A6 (100 µmol/L coumarin), 2B6 (150 µmol/L bupropion), 2C9 (50 µmol/L tolbutamide), 2C19 (100 µmol/L S‐mephenytoin), and 2E1 (300 µmol/L chlorzoxazone) activity assays. The reactions were stopped by the addition of 0.15 mL of ice‐cold methanol except that coumarin‐treated cells were incubated with β‐glucuronidase and aryl sulfatase for additional 1 hour to free 7‐hydroxycoumarin before the addition of 0.2 mL of ice‐cold methanol. Metabolite formation in incubations with test compounds and control inhibitors was assessed with validated LC‐MS/MS methods for each of the reaction products as described in Table S2. Enzymatic activity for each CYP was calculated using the absolute amount of metabolite formed (pmol) divided by hepatocytes in the incubation (million cells) and the incubation time (minute). The relative fold induction in enzymatic activity was calculated by comparing the rate of metabolite formation for treatment groups to that of the solvent control group (reported as vehicle control%) or positive control group (reported as positive control%).

[2] = Metabolism of [14C]-ataluren in pooled human liver microsomes with cofactors
Method: [^14C]‐Ataluren at 1, 10, and 100 μmol/L was incubated (n = 3) with pooled HLM (1 mg protein/mL) at 37 ± 1°C in 0.2 mL incubation mixtures (final volume) containing potassium phosphate buffer (50 mmol/L, pH 7.4), MgCl2 (3 mmol/L), and EDTA (1 mmol/L) with and without cofactors, NADPH‐generating system (1 mmol/L NADP, 5 mmol/L glucose‐6‐phosphate, and 1 unit/mL glucose‐6‐phosphate dehydrogenase), and uridine diphosphate glucuronic acid (UDPGA, 8 mmol/L). [^14C]‐Ataluren was added in DMSO (final percent of 0.1% v/v). Reactions were started by the addition of the cofactors and terminated by the addition of stop reagent (0.2 mL of 2% v/v formic acid/acetonitrile) at 0, 60, and 120 minutes. Precipitated protein was removed by centrifugation (920 g for 10 minutes at 10°C). The supernatant fractions were analyzed by LC/RAM/MS to determine percent loss of substrate in incubations. Detailed LC/MS conditions are summarized in LC‐MS/MS Analysis section. After chromatographic separation, the detected radioactive peaks were integrated, and their identity was confirmed using mass spectrometry analysis. [^14C]‐ataluren remaining at specific timepoint after incubation was compared with the amount of [^14C]‐ataluren at 0 minutes incubation sample in the same matrix (eg, with or without cofactors etc) to calculate the percentage of ataluren remaining. The percentage of [^14C]‐ataluren acyl glucuronide formation at specific timepoint after incubation was calculated using the amount of metabolite formed over the total radioactivity in each sample.
[^14C]‐Ataluren and metabolites were monitored by LC/RAM/MS system, which consisted of two Shimadzu LC‐10ATvp pumps (Shimadzu Scientific Instruments, Columbia, MD, USA), a Shimadzu SIL‐5000 autosampler, an IN/US Systems β‐RAM radiometric detector (LabLogic), and a Sciex API 4000 QTRAP triple quadrupole mass spectrometer (Sciex) equipped with a Turbo Ionspray ionization source operated in negative ionization mode. The Ionspray voltage was set at 4.5 kV with the source temperature at 450 °C. MS/MS was carried out with nitrogen as the collision gas. The column used was a Phenomenex Luna C8, 3 μm, 150 × 3.0 mm column (Phenomenex, Torrance, CA, USA). Mobile phase A consisted of 0.2% formic acid in water and mobile phase B consisted of 0.2% formic acid in acetonitrile. The flow rate was 0.50 mL/min with gradient program as follows: hold isocratic at 5% B for 2 minutes; linear gradient from 5% B to 60% B in 20 minutes; linear gradient from 60% B to 95% B in 5 minutes and hold isocratic at 95% B for 2 minutes; linear gradient from 95% B to 5% B in 0.5 minutes and hold isocratic at […] for 3.5 minutes.

[3] = Glucuronidation in pooled human intestinal microsomes; details: intestinal microsomes 1 mg protein/mL, 10 μmol/L, 60 minutes, n = 1
Method: Ataluren at 10 μmol/L, was incubated (n = 1) with pooled human intestinal, lung, and kidney microsomes (1 mg protein/mL, preactivated with alamethicin) to evaluate if ataluren‐O‐1β‐acyl glucuronide will be formed in these extrahepatic tissues. Incubation mixtures and procedures were essentially the same as the above. The supernatant fractions were analyzed by LC‐MS/MS to quantify the formation of ataluren‐O‐1β‐acyl glucuronide and the loss of ataluren. Detailed LC‐MS/MS conditions are summarized in LC‐MS/MS Analysis section. […] The ataluren acyl glucuronide formation rate after 60 minutes incubation was calculated using the amount of metabolite formed (pmol) divided by the protein amount in the incubation sample ([…]) and the incubation time (60 minutes).
Quantification of ataluren loss and ataluren‐O‐1β‐acyl glucuronide formation was carried out with an LC‐MS/MS system, which consisted of two Shimadzu LC‐10ADvp pumps, a SPD10‐AVP UV/Vis detector, a Shimadzu SILHTA autosampler, a Shimadzu DGU‐14A degasser, and a Sciex API 4000 QTRAP mass spectrometer equipped with a Turbo Ionspray ionization source that operated in positive ionization mode. […] Ion transitions monitored were at m/z 285 → m/z 123 for ataluren, m/z 461 → m/z 285 for ataluren acyl glucuronide, and m/z 289 → m/z 127 for ataluren‐D4 (internal standard), respectively.

O=C(O)c1cccc(-c2noc(-c3ccccc3F)n2)c1 [ataluren, Ataluren]
Positive control %, Mean ([1]; ataluren 4 µM): 0.594% | Vehicle control %, Mean ([1]; ataluren 4 µM): 103% | Positive control %, Mean ([1]; ataluren 40 µM): 1.52% | Vehicle control %, Mean ([1]; ataluren 40 µM): 105% | Positive control %, Mean ([1]; ataluren 400 µM): 3.72% | Vehicle control %, Mean ([1]; ataluren 400 µM): 109% | ataluren loss ([2]; NADPH fortified HLM, 1, 10 and 100 µmol/L, up to 120 minutes): no ataluren loss was observed | ataluren loss ([2]; UDPGA fortified HLM, 1 µmol/L, 120 minutes, n = 3): 32% | ataluren loss ([2]; UDPGA fortified HLM, 10 µmol/L, 120 minutes, n = 3): 31% | ataluren loss ([2]; UDPGA fortified HLM, 100 µmol/L, 120 minutes, n = 3): 18% | ataluren loss [3]: 34.4%

— PMC7083565, “In vitro metabolism, reaction phenotyping, enzyme kinetics, CYP inhibition and induction potential of ataluren” (Pharmacology Research & Perspectives, 2020)
